Patent publication US12582632B2, “Inhibition of neurological injuries due to infections via administration of Butanetap and analogs thereof” (priority 2021, dated 2026)

Tests used:
[1] = Double Alzheimer/Parkinson phase 2 clinical trial; assay type: in vivo, human
Source text: Three Phase I clinical studies have established butanetap's safety. […] Therefore, we conclude that a much lower single daily butanetap dose would be effective in the proposed study.

[2] = tested on: APP in SH-SY-5Y human neuroblastoma cells; assay: APP in vitro, Western blot; assay type: cell-based; conditions: 0, 0.1, 1, 5 and 10 μM, FIG. 1
[3] = tested on: Tau in transgenic neo-natal human Tau mice cells; assay: Tau in vitro; assay type: cell-based; conditions: cells treated for 4 days, antibodies against Tau and phospho-Tau, FIG. 3
Experimental: (§1) The cells were treated for 4 days with butanetap harvested, solubilized, and tested with antibodies against Tau and phospho-Tau. • B. FIG. 4, Tau in vivo. […] After 6 weeks, mice were killed and the total and insoluble (aggregated) tau was measured. […] Precipitated tau corresponds to tangles in the brain.

[4] = tested on: insoluble (aggregated) tau; assay: Tau in vivo, hTau mice, ELISA; conditions: in mouse chow, 6 weeks; three of the 4 ELISA assays, FIG. 4
Experimental: as §1

alpha-synuclein = alpha-synuclein in gut in vivo, PD A53T mice, Western blot
Experimental: • A. FIG. 5, alpha-synuclein in vitro. […] On the left is a Western blot showing butanetap inhibition of aSYN in relation to Actin standard at concentrations of 0, 0.1, 1, 5 and 10 μM and on the right a graph showing the same data plotted for statistical analysis purposes. • B. FIG. 6, alpha-synuclein brain in vivo. […] The animals were only treated for 2 weeks, so in brain it takes butanetap only 2 weeks to lower levels of alpha-synuclein. • C. FIG. 7, alpha-synuclein in gut in vivo. Gut levels of aSYN following treatment of PD A53T mice with 10 mg/kg for 21 weeks and 21 days reduced αSYN levels in the gut as shown by Western Blot.

[5] = tested on: Immortalized Mouse Astrocytes—SV40T (IMA2.1); assay: Gingipain cytotoxicity on astrocytes, AlamarBlue viability; assay type: cell-based; conditions: retest at much lower concentrations, 1 nM, FIG. 10
Experimental: Immortalized Mouse Astrocytes—SV40T (IMA2.1), immortalized Mouse Microglia (SIM-A9) and immortalized neuroblastoma (SH-SY5Y) cells were infected for 48 hours with gingipains HRgpA and RgpB (arginine gingipains), and Kgp (lysine-specific cysteine proteinase—Lys-gingipain, KGP). After 48 hours the cells were assessed for viability with the AlamarBlue assay and the percentage of dead or alive cells versus control was plotted. […] As expected, since neither are dying, […]. […] Therefore, we expect the efficacious buntanetap dose to fight P. gingivalis infection to be the same as to treat Alzheimer's and Parkinson's disease has no impact on the microglia or neuroblastoma survival in the presence of gingipains.
FIG. 10 show the results of retesting of the gingipain effect on astroglia at much lower concentrations.

rat acute glaucoma model = assay: Acute glaucoma model; assay type: in vivo
Source text: Butanetap's efficacy in treating neurodegeneration in animal models: Restored memory and learning in an APP/PS1 transgenic (tg) mouse model of AD; Restored memory and learning in a Ts65dn mouse model of Down syndrome (DS) [W. Mobley, UCSD, submitted 2020]; Preserved the retina in acute glaucoma [J Sundstrom; Hershey Medical School]; Restored colonic motility in a human SNCAA53T tg mouse model of PD (Kuo et. al., Am J Neurodegener Dis 2019; 8(1):1-15 www.AJND.us/ISSN:216 591X/AJND0086080: Translational inhibition of α-synuclein by Butanetap (Posiphen) normalizes distal colon motility in transgenic Parkinson mice); Preserved memory and learning in traumatic brain injury rats (M-F Chesselet, submitted 2020).
Butanetap's reversal of the neurotoxic cascade: Butanetap's mechanism of action is related to APP, Tau, and aSYN expression being regulated by RP1 and by iron and the way these proteins contribute to neurodegeneration by accumulating as toxic aggregates that impair axonal transport and synaptic transmission, causing inflammation, and, finally, leading to nerve cell death (as described previously).

[6] = tested on: neurotoxic aggregating proteins in stem cells (dividing cells); assay: Neurotoxic aggregating proteins in stem cells and derived neurons; assay type: cell-based
[7] = tested on: APP, Tau, αSYN and inflammatory markers in CSF; conditions: MCI subjects, cited from earlier work
[8] = Plasma and brain levels in humans, calculated and extrapolated from mice data
Source text: The doses are provided in mg/kg; mg dose for a 70 kg human; plasma levels in mice and humans (ng/ml); plasma levels in humans (nM); brain levels in mice and humans (ng/gram); oral human efficacious and safe dose (mg/day); IP/P human efficacious and safe dose (mg/day); and IV human efficacious and safe dose (mg/day).

[9] = dose 0.014 mg/kg, 1.0 mg for 70 kg
[10] = dose 0.07 mg/kg, 4.9 mg for 70 kg
[11] = dose 0.143 mg/kg, 10.0 mg for 70 kg
[12] = dose 0.16 mg/kg, 11.2 mg for 70 kg
[13] = dose 0.21 mg/kg, 14.7 mg for 70 kg
[14] = dose 0.23 mg/kg, 16.1 mg for 70 kg
[15] = dose 0.29 mg/kg, 20.3 mg for 70 kg
[16] = dose 0.34 mg/kg, 23.8 mg for 70 kg
[17] = dose 0.57 mg/kg, 39.9 mg for 70 kg
[18] = dose 1 mg/kg, 70.0 mg for 70 kg
[19] = dose 1.14 mg/kg, 79.8 mg for 70 kg
[20] = dose 1.71 mg/kg, 119.7 mg for 70 kg
[21] = dose 2.13 mg/kg, 149.1 mg for 70 kg
[22] = dose 2.29 mg/kg, 160.3 mg for 70 kg

## CN1CC[C@]2(C)c3cc(OC(=O)Nc4ccccc4)ccc3N(C)C12 (stereo partly drawn) [butanetap, (3aR)-1,3a,8-trimethyl-1,2,3,3a,8,8a-hexahydropyrrolo[2,3-b]indol-5-yl phenylcarbamate]
[1]; AD and PD patients
  axonal and synaptic function: improved
  inflammatory markers: reduced
  neurotoxic protein biomarkers: reduced
[1]; AD and PD patients, once daily
  blood brain barrier crossing: crossed the blood brain barrier
[1]; AD patients, 80 mg QD, significant versus baseline, not versus placebo
  cognition as measured by ADAS-Cog11 and WAIS coding speed: improved
[1]; PD patients, 5, 10, 20, 40, 80 mg QD, maximum improvement for 10 & 20 mg
  motor function as measured by MDS-UPDRS (Part II, III, IV and total): improved at all doses
[1]; PD patients, significant versus placebo at 5, 20 and 80 mg
  WAIS speed and accuracy: improved
[2]
  APP in relation to Actin standard: lowers APP in vitro in a dose-dependent manner
[3]
  Tau expression: reduces
[4]
  amount of insoluble tau: significant reduction
alpha-synuclein; 10 mg/kg for 21 weeks, p<0.05, FIG. 7
  reduction of alpha-synuclein levels in the gut: 50.6%
alpha-synuclein; 10 mg/kg for 21 days
  significant reduction of alpha-synuclein levels in the gut: not at 21 days
[5]
  protection of gingipain infected astrocytes: completely protected
[5]; listed as buntanetap
  protection of gingipain infected astrocytes: protects astrocytes at very low concentrations
Rat acute glaucoma model; acute glaucoma
  retina: Preserved
Rat acute glaucoma model; rat acute glaucoma model
  nerve cells: protected
[6]; differentiated neurons derived from the stem cells
  neurotoxic aggregating proteins: not in the differentiated neurons
[6]; stem cells (dividing cells)
  neurotoxic aggregating proteins: inhibits
[7]; 4×60 mg/day
  levels of APP, Tau, and αSYN in the cerebrospinal fluid (CSF): normalized
[7]
  CSF Aβ42: trend to lower
  CSF levels of p-tau: significantly lowered
  CSF levels of sAPPα: significantly lowered
  CSF levels of sAPPβ: significantly lowered
  CSF levels of specific inflammatory markers: significantly lowered
  CSF levels of t-tau: significantly lowered
  half-life in CSF: > 12 h
[8]; [9]
  Brain levels in humans: 8 ng/gram
  Plasma levels in human: 1 ng/mL
  Plasma levels in humans: 3 nM
[8]; [10]
  Brain levels in humans: 16 ng/gram
  Plasma levels in human: 2 ng/mL
  Plasma levels in humans: 6 nM
[8]; [11]
  Brain levels in humans: 29.6 ng/gram
  Plasma levels in human: 3.7 ng/mL
  Plasma levels in humans: 10 nM
[8]; [12]
  Brain levels in humans: 45.6 ng/gram
  Plasma levels in human: 5.7 ng/mL
  Plasma levels in humans: 17 nM
[8]; [13]
  Brain levels in humans: 92 ng/gram
  Plasma levels in human: 11.5 ng/mL
  Plasma levels in humans: 32 nM
[8]; [14]
  Brain levels in humans: 103.2 ng/gram
  Plasma levels in human: 12.9 ng/mL
  Plasma levels in humans: 38 nM
[8]; [15]
  Brain levels in humans: 112 ng/gram
  Plasma levels in human: 14 ng/mL
  Plasma levels in humans: 41 nM
[8]; [16]
  Brain levels in humans: 160 ng/gram
  Plasma levels in human: 20 ng/mL
  Plasma levels in humans: 58 nM
[8]; [17]
  Brain levels in humans: 336 ng/gram
  Plasma levels in human: 42 ng/mL
  Plasma levels in humans: 123 nM
[8]; [18]
  Brain levels in humans: 720 ng/gram
  Plasma levels in human: 90 ng/mL
  Plasma levels in humans: 264 nM
[8]; [19]
  Brain levels in humans: 960 ng/gram
  Plasma levels in human: 120 ng/mL
  Plasma levels in humans: 352 nM
[8]; [20]
  Brain levels in humans: 1600 ng/gram
  Plasma levels in human: 200 ng/mL
[8]; [21]
  Brain levels in humans: 1920 ng/gram
  Plasma levels in human: 240 ng/mL
[8]; [22]
  Brain levels in humans: 3040 ng/gram
  Plasma levels in human: 380 ng/mL
